Test results published in ChEMBL document CHEMBL3507680, “University of Dundee, Gates Library screen for HepG2 cell viability”.

Assay: Human HepG2 cell viability assay in 384 well format
Type: toxicity, cell-based
Design: dose 125 nL, time 70.5 hour; concentration not given beside the values
Details: HepG2 cells, read-out: Inhibition

| Structure (SMILES) | cytotoxicity at 70.5 h |
| --- | --- |
| O=C(NC(c1ccc(Cl)cc1)c1cccnc1)C1CC1 (stereo not given) | -7.72% |
| CCOc1ccccc1CNS(=O)(=O)c1ccc2c(c1)CCCC(=O)N2 | -9.4% |
| CCCc1nnc(SCc2cc(=O)n3c4c(sc3n2)CCCC4)[nH]1 | -6.9% |
| Cc1ccc(NC(=O)c2cnc(N3CCN(C)CC3)nc2C)cc1C | -4.49% |
| Cc1cc(C)cc(NC(=O)c2cnc(N3CCN(C)CC3)nc2C)c1 | -0.093% |
| CCC1CN(CC(=O)NCCN2CCCCC2)c2ccccc2S1 (stereo not given) | -3.08% |
| O=C1COc2cc(S(=O)(=O)NCCC3=CCCCC3)c(Cl)cc2N1 | 14.7% |
| Cc1nc(-c2ccc(S(=O)(=O)N3CCCCC3)cc2)co1 | -8.94% |
| COc1cccc(CNC(=O)Cn2ccc3c(C)nn(C)c3c2=O)c1 | -5.8% |
| Cc1nn(C)c2c(=O)n(CC(=O)NCCC3=CCCCC3)ccc12 | -1.87% |
| CCOc1ccccc1CNC(=O)Cn1ccc2c(C)nn(C)c2c1=O | -5.58% |
| O=C(Cn1ccc2sccc2c1=O)NCCCc1ccccc1 | -9.43% |
| O=C(Cn1ccc2sccc2c1=O)NCCC1=CCCCC1 | -8.78% |
| CCOC(=O)Cn1c(=O)c(OCC)nc2cnccc21 | -3.59% |
| CC1=C(c2ccc(C)cc2)S(=O)(=O)N=C1N1CCc2ccccc21 | -5.39% |
| CCOc1nc2cnccc2n(CC(=O)NCc2ccco2)c1=O | -10.1% |
| CC(=O)N1N=C(COc2ccc(C)cc2)OC1c1ccc(N(C)C)cc1 (stereo not given) | -6.08% |
| COc1ccc(CN2CCCCCC2c2cccs2)c(O)c1 (stereo not given) | -7.17% |
| Cc1nn(C)cc1CN1CCCCCC1c1ccc(Cl)cc1 (stereo not given) | 6.75% |
| COc1cc(CN2CCCCCC2c2cccs2)cc(OC)c1O (stereo not given) | -2.15% |
| COc1ccc(CN2CCCCCC2c2cccs2)c(OC)c1 (stereo not given) | -8.21% |
| COc1cccc(CN2CCCCCC2c2sccc2C)c1O (stereo not given) | 1.85% |
| CCCNC(=O)Nc1ccc2c(c1)N(S(=O)(=O)CC)CC2 | -6.9% |
| CCS(=O)(=O)N1CCc2ccc(NC(=O)Nc3cccc(C)c3)cc21 | 17.9% |
| CCS(=O)(=O)N1CCc2ccc(NC(=O)NCc3ccccc3)cc21 | -3.62% |
| CCC(C)NC(=O)Cn1ccc2c(C)nn(CC)c2c1=O (stereo not given) | 30.5% |
| CCn1nc(C)c2ccn(CC(=O)NC3CC3)c(=O)c21 | -9.78% |

| Structure (SMILES) | cytotoxicity at 70.5 h |
| --- | --- |
| COc1cc(N2C[C@H]3CN(CC(=O)N(C)C)C(=O)[C@H]3C2)ncn1 | 28.2% |
| CCN1CCC2(CC1)CN(CCO)c1ccccc12 | 21.2% |
| O=C(Cc1cccs1)NCC1COCc2c(-c3ccoc3)nnn2C1 (stereo not given) | -9.17% |
| CC1c2ncc(COCC3CCCC3)n2CCN1S(=O)(=O)N(C)C (stereo not given) | 0.773% |
| O=c1ccc2c(n1Cc1cccnc1)CCC(NCc1cccnc1)C2 (stereo not given) | -0.912% |
| CS(=O)(=O)N1C[C@H](C(=O)Nc2cnccn2)C[C@H]2OCC[C@H]21 | 24.9% |
| CCn1cc2c(n1)C(COCC1CC1)CN(C(=O)c1cnoc1C)C2 (stereo not given) | -12.8% |
| COCc1cnc2n1CCN(S(=O)(=O)N(C)C)C2C (stereo not given) | -15.1% |
| CCOCC1COCCC12CCN(C(=O)CS(C)(=O)=O)CC2 (stereo not given) | -4.64% |
| Cn1c(C(=O)NC2CC2)nc2c1CCN(c1ncccn1)C2 | -4.38% |
| COCC(=O)N1CCC2(CCC2NS(=O)(=O)c2ccccc2)CC1 (stereo not given) | 28.8% |
| CC(C)CNC(=O)[C@H]1C[C@@H]2CN(C(=O)NCC3CCCCC3)C[C@H]1O2 | -2.13% |
| COC[C@@H]1CN(C)C(=O)[C@@H]2CCN(Cc3ccco3)CC[C@H]12 | -4.9% |
| CC(C)n1ccc(-c2cc(C(=O)NC3CC3)c3ccccn23)n1 | 21.3% |
| CC(C)N(C)[C@@H]1CCN(Cc2ccco2)[C@H]1Cc1ccccc1 | 38.2% |
| O=C(NCCN1CCCC1)c1nc2c(o1)CN(c1ncccn1)C2 | -1.07% |
| CCc1cnc(N2CCC3(CCN(CC)C3=O)CC2)nc1 | -4.14% |
| CCCNC(=O)c1cc(-c2ccn(C(C)C)n2)n2ccccc12 | -7.13% |
| CCCNC(=O)c1nc2c(o1)CN(c1ncccn1)C2 | -2.16% |
| CN(C)C(=O)[C@H]1CC[C@@H]2[C@@H](CCN2C(=O)N(C)C)O1 | 1.41% |
| O=C(C1CCCCC1)N1CCC2(CC1)CNCc1ccccc12 | 0.691% |
| CC(C)C(=O)N1CCC2(CC1)NC(=O)c1ccccc12 | -2.39% |
| O=C(NCC1CCC2(CCNCC2)CO1)c1ccno1 (stereo not given) | 3.09% |
| O=C([C@@H]1COC[C@H]2CN(CC3CC3)C[C@H]21)N1CCC(F)CC1 | 32.5% |
| CC[C@@H]1N(CC2CCOCC2)CCC[C@]12CCC(=O)N2 | -6.16% |
| Fc1ccccc1CO[C@@H]1C[C@H]2CN(c3ncccn3)CCN2C1 | 4.66% |
| CN(C)Cc1cnc2n1CCN(C(=O)NC1CCCC1)CC2 | -1.58% |

| Structure (SMILES) | cytotoxicity at 70.5 h |
| --- | --- |
| CN1CCO[C@@H]2CN(C(=O)COc3cccc(Cl)c3)C[C@@H]2C1 | 4.28% |
| CN1C[C@@H](COCC2CC2)[C@H]2CCN(Cc3ccco3)CC[C@H]2C1=O | -5.7% |
| CN(C)C(=O)N1CC[C@H]2[C@H]1CCN2c1nncs1 | -6.13% |
| CCOCC(=O)N1CCc2c(CN(C)C)nn(C(C)C)c2C1 | -4.01% |
| COC[C@H]1CN(CC2CC2)C(=O)[C@@H]2CCN(Cc3ccoc3)CC[C@H]12 | -4.84% |
| CN(C)Cc1cnc2n1CCN(C(=O)Cc1ccc(F)cc1)CC2 | -1.54% |
| O=S1(=O)NCC2(CCN(c3ncccn3)CC2)COc2ccccc21 | 47.5% |
| O=C(CC1CCCC1)N1CC[C@H]2[C@H]1CCN2c1nncs1 | 19.9% |
| O=S(=O)(C1CC1)N1CCc2onc(COc3ccccn3)c2C1 | 34.6% |
| Cc1cccc(N2CCC3(CCCC(=O)N3)CC2)n1 | -0.82% |
| Cc1ccc(N2CCCC3(CCCC(=O)N3)C2)nn1 (stereo not given) | -5.66% |
| Cc1cnc(N2CCN(C)c3ncccc3C2)nc1 | 4.51% |
| COCC1CN(S(=O)(=O)c2ccc(C)cc2)Cc2c1cnn2C (stereo not given) | 7.58% |
| c1cc(C2CC2)n2cnc(C3CN(Cc4nccs4)CCO3)c2c1 (stereo not given) | -1.41% |
| COCC1CN(S(=O)(=O)Cc2ccccc2)Cc2c1cnn2C (stereo not given) | -1.14% |
| CCS(=O)(=O)N1CCc2onc(COc3ccccn3)c2C1 | -3.32% |
| c1nc2c(c(NC3CCC3)n1)CCNCC2 | -2.44% |
| COCC1CN(C(=O)COc2ccccc2)Cc2ncn(C)c21 (stereo not given) | -0.249% |
| c1ccc(OCc2noc3c2CN(c2ncccn2)CC3)nc1 | -6.14% |
| CCN1CCCC12CCN(Cc1cccnc1OC)CC2 | -4.58% |
| c1ccc(CO[C@@H]2C[C@H]3CN(c4ncccn4)CCN3C2)nc1 | -7.06% |
| COCCN1CCO[C@@H]2CN(Cc3ccccc3OC)C[C@@H]2C1 | -0.773% |
| COCCN1CCC2(CC1)CC(NCc1cncn1C)c1ccccc12 (stereo not given) | 1.8% |
| O=C(NC1CC2(CCN(CCO)CC2)c2ccccc21)c1ccncc1 (stereo not given) | -5.59% |
| COCCN1CCO[C@@H]2CN(Cc3ccc(C)s3)C[C@@H]2C1 | -2.59% |
| Cn1cc(CNC2CC3(CCN(CC4CC4)CC3)c3ccccc32)cn1 (stereo not given) | -2.11% |
